Measurements published in ChEMBL document CHEMBL4130348, “Structure-activity relationship investigation for benzonaphthyridinone derivatives as novel potent Bruton's tyrosine kinase (BTK) irreversible inhibitors” (Eur J Med Chem, 2017).
pIC50: −log10 of the molar value.

Columns and labels:
Z-138 = assay: Antiproliferative activity against human Z138 cells after 72 hrs by CellTiter-Glo assay; format: functional; conditions: Z-138, 72 h
U2932 = assay: Antiproliferative activity against human U2932 cells after 72 hrs by CellTiter-Glo assay; format: functional; conditions: U2932, 72 h
cells [1] = format: functional; conditions: Homo sapiens, CLL cell, 72 h
U-937 = assay: Antiproliferative activity against human U937 cells after 72 hrs by CellTiter-Glo assay; format: functional; conditions: U-937, 72 h
cells [2] = format: functional; conditions: Homo sapiens, CLL cell, 72 h; remark: listed apart in the source
[3] = target: Tyrosine-protein kinase JAK2 (Homo sapiens) (UniProt O60674); assay: Inhibition of TEL-fused JAK2 (unknown origin) expressed in mouse BA/F3 cells after 72 hrs by CellTiter-Glo assay; format: cell-based
Chain of Tyrosine-protein kinase JAK2 (Homo sapiens) (O60674 whole entry, the tested form may be a part): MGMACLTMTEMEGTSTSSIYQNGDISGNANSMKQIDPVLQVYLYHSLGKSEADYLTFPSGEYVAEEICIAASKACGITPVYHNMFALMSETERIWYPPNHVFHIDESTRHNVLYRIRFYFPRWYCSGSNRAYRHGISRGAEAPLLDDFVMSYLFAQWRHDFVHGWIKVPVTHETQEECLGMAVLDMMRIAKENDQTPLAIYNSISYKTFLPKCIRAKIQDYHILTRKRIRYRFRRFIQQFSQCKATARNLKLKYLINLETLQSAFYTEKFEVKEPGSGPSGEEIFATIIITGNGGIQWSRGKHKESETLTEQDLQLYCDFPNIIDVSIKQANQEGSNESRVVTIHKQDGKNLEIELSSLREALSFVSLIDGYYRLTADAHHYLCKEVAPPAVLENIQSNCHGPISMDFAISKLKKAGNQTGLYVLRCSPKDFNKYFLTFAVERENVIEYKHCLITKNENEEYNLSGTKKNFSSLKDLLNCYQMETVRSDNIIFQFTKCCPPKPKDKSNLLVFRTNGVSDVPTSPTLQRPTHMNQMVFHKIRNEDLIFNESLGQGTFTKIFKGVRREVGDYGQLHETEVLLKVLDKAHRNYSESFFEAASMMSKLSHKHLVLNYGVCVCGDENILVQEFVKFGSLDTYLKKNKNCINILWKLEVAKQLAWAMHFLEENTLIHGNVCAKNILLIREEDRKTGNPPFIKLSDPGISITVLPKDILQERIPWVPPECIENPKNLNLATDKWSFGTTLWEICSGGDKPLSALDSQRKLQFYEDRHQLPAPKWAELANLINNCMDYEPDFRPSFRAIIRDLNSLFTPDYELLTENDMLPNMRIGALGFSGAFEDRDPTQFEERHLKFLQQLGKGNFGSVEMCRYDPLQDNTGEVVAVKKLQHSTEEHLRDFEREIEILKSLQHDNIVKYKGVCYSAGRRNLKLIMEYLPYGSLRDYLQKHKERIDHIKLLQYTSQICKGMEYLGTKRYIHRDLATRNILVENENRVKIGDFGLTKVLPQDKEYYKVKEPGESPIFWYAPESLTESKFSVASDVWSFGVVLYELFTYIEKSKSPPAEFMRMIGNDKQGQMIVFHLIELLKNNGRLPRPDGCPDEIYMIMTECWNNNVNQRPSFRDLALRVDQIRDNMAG

cells [4] = format: functional; conditions: Homo sapiens, CLL cell, 72 h; remark: listed apart in the source
[5] = target: T1, Tyrosine-protein kinase JAK3 (Homo sapiens, UniProt P52333); assay: Inhibition of recombinant GST-tagged human JAK3 expressed in baculovirus expression system using poly (4:1 Glu, Tyr) as substrate preincubated for 1 hr followed by substrate addition measured after 1 hr by ADP-glo assay
T1 sequence (P52333 whole entry): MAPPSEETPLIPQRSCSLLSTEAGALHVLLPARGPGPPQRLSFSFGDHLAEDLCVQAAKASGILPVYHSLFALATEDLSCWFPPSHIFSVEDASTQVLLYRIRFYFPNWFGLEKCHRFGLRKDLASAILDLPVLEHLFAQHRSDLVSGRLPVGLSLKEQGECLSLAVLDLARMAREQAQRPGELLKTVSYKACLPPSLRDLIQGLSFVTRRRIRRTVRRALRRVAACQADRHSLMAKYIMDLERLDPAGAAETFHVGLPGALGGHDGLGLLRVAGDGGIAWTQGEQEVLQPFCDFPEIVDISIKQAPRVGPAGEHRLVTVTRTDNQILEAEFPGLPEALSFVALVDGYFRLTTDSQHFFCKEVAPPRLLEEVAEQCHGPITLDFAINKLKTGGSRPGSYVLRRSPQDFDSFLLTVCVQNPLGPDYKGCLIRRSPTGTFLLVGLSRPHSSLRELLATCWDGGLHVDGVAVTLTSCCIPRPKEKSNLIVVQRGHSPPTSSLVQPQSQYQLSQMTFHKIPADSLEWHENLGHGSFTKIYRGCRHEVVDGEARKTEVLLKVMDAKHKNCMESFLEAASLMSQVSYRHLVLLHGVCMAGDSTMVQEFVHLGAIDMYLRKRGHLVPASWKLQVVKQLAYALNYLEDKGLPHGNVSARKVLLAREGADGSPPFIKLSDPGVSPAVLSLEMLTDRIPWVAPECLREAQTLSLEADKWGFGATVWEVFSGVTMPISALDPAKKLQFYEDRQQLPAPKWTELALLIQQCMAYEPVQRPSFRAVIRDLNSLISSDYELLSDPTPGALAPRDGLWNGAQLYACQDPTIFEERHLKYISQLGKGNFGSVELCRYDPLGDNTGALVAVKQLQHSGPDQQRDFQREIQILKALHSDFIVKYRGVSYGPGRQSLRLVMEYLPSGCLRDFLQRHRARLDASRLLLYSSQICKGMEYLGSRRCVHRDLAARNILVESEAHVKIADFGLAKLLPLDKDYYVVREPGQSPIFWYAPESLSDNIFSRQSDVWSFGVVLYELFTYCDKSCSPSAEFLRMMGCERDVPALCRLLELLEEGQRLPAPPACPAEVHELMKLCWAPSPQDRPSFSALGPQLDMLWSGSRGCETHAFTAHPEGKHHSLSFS

[6] = tested on: Epidermal growth factor receptor (Homo sapiens), P00533 [L858R,T790M]; assay: Inhibition of TEL-fused EGFR T790M/L858R mutant (unknown origin) expressed in mouse BA/F3 cells after 72 hrs by CellTiter-Glo assay; format: cell-based
Chain of Epidermal growth factor receptor (Homo sapiens), P00533 [L858R,T790M] (P00533 whole entry T790M/L858R, looked up, the tested form may be a part): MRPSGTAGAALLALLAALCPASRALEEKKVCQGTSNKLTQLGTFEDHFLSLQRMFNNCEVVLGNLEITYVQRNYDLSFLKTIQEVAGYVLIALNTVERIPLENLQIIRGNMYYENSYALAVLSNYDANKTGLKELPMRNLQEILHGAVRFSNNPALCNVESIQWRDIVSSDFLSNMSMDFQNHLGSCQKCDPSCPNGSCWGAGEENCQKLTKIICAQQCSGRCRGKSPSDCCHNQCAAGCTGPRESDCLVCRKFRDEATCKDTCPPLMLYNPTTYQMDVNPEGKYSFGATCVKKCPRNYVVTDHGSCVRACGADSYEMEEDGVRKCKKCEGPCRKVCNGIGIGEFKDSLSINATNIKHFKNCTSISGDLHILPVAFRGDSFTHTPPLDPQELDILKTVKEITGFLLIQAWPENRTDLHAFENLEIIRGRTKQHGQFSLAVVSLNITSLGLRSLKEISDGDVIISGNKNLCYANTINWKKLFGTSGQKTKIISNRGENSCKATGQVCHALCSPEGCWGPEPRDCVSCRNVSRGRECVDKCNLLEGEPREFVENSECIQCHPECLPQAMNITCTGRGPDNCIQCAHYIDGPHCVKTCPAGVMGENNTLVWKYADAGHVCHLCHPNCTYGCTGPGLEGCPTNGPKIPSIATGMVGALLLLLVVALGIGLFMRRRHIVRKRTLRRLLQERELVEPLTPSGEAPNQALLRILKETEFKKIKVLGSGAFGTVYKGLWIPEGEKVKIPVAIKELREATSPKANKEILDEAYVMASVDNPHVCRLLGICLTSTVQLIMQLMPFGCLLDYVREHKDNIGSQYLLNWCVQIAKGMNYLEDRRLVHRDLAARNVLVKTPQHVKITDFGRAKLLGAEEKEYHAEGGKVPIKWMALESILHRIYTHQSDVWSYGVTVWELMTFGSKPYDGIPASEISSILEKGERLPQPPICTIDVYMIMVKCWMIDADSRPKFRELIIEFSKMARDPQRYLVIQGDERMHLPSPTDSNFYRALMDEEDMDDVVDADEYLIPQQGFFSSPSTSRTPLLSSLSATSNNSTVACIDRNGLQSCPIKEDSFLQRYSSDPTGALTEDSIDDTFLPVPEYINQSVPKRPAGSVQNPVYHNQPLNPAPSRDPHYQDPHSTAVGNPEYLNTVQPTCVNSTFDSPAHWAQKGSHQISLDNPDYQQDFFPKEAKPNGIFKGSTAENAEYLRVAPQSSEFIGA

Rec1 = assay: Antiproliferative activity against human Rec1 cells after 72 hrs by CellTiter-Glo assay; format: functional; conditions: Rec1, 72 h
NCI-H1975 = assay: Antiproliferative activity against human NCI-H1975 cells after 72 hrs by CellTiter-Glo assay; format: functional; conditions: NCI-H1975, 72 h
[7] = Antiproliferative activity against mouse BA/F3 cells after 72 hrs by CellTiter-Glo assay; format: cell-based, BaF3
SU-DHL-2 = assay: Antiproliferative activity against human SUDHL2 cells after 72 hrs by CellTiter-Glo assay; format: functional; conditions: SU-DHL-2, 72 h
HeLa = assay: Antiproliferative activity against human HeLa cells after 72 hrs by CellTiter-Glo assay; format: functional
[8] = Antiproliferative activity against human MOLM16 cells after 72 hrs by CellTiter-Glo assay; format: functional; conditions: MOLM16, 72 h
MOLM-13 = assay: Antiproliferative activity against human MOLM13 cells after 72 hrs by CellTiter-Glo assay; format: functional; conditions: MOLM-13, 72 h
NAMALVA = assay: Antiproliferative activity against human NAMALWA cells after 72 hrs by CellTiter-Glo assay; format: functional
OCI-AML2 = assay: Antiproliferative activity against human OCI-AML2 cells after 72 hrs by CellTiter-Glo assay; format: functional; conditions: OCI-AML2, 72 h
[9] = tested on: Tyrosine-protein kinase JAK3; assay: Inhibition of TEL-fused JAK3 (unknown origin) expressed in mouse BA/F3 cells after 72 hrs by CellTiter-Glo assay; conditions: Homo sapiens
DU-145 = assay: Antiproliferative activity against human DU145 cells after 72 hrs by CellTiter-Glo assay; format: functional; conditions: DU-145, 72 h
Ramos = assay: Antiproliferative activity against human Ramos cells after 72 hrs by CellTiter-Glo assay; format: functional
cells [10] = format: functional; conditions: Homo sapiens, CLL cell, 72 h; remark: listed apart in the source
[11] = target: Cytoplasmic tyrosine-protein kinase BMX (Homo sapiens) (UniProt P51813)
Chain of Cytoplasmic tyrosine-protein kinase BMX (Homo sapiens) (P51813 whole entry): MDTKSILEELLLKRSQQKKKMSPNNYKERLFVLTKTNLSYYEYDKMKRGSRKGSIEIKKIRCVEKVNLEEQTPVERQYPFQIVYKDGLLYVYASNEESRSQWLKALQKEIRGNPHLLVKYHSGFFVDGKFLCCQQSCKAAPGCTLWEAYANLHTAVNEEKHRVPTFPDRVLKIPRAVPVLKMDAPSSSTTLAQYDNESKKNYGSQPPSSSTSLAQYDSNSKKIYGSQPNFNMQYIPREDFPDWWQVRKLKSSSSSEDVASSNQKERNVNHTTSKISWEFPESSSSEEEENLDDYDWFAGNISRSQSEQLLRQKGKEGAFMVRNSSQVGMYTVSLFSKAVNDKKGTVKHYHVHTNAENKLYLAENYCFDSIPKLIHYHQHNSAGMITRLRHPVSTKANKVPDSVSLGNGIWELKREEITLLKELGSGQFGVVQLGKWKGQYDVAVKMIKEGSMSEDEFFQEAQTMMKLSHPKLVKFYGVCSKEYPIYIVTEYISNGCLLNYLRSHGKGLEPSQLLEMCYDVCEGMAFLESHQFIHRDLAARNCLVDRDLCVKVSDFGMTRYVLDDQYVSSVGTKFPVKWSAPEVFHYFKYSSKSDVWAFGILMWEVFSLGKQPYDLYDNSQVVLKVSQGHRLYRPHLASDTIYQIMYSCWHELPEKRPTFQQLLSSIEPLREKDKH
Description: Inhibition of TEL-fused BMX (unknown origin) expressed in mouse BA/F3 cells after 72 hrs by CellTiter-Glo assay

NCI-H358 = assay: Antiproliferative activity against human NCI-H358 cells after 72 hrs by CellTiter-Glo assay; format: functional; conditions: NCI-H358, 72 h
JVM-2 = assay: Antiproliferative activity against human JVM2 cells after 72 hrs by CellTiter-Glo assay; format: functional; conditions: JVM-2, 72 h
LNCaP C4-2 = assay: Antiproliferative activity against human C4-2 cells after 72 hrs by CellTiter-Glo assay; format: functional; conditions: LNCaP C4-2, 72 h
A549 = assay: Antiproliferative activity against human A549 cells after 72 hrs by CellTiter-Glo assay; format: functional; conditions: A549, 72 h
HEL = assay: Antiproliferative activity against human HEL cells after 72 hrs by CellTiter-Glo assay; format: functional
[12] = Antiproliferative activity against human PF138 cells after 72 hrs by CellTiter-Glo assay; format: functional
Pfeiffer = assay: Antiproliferative activity against human Pfeiffer cells after 72 hrs by CellTiter-Glo assay; format: functional
[13] = target: Epidermal growth factor receptor (Homo sapiens) (UniProt P00533); assay: Inhibition of TEL-fused EGFR (unknown origin) expressed in mouse BA/F3 cells after 72 hrs by CellTiter-Glo assay; format: cell-based
Chain of Epidermal growth factor receptor (Homo sapiens) (P00533 whole entry, the tested form may be a part): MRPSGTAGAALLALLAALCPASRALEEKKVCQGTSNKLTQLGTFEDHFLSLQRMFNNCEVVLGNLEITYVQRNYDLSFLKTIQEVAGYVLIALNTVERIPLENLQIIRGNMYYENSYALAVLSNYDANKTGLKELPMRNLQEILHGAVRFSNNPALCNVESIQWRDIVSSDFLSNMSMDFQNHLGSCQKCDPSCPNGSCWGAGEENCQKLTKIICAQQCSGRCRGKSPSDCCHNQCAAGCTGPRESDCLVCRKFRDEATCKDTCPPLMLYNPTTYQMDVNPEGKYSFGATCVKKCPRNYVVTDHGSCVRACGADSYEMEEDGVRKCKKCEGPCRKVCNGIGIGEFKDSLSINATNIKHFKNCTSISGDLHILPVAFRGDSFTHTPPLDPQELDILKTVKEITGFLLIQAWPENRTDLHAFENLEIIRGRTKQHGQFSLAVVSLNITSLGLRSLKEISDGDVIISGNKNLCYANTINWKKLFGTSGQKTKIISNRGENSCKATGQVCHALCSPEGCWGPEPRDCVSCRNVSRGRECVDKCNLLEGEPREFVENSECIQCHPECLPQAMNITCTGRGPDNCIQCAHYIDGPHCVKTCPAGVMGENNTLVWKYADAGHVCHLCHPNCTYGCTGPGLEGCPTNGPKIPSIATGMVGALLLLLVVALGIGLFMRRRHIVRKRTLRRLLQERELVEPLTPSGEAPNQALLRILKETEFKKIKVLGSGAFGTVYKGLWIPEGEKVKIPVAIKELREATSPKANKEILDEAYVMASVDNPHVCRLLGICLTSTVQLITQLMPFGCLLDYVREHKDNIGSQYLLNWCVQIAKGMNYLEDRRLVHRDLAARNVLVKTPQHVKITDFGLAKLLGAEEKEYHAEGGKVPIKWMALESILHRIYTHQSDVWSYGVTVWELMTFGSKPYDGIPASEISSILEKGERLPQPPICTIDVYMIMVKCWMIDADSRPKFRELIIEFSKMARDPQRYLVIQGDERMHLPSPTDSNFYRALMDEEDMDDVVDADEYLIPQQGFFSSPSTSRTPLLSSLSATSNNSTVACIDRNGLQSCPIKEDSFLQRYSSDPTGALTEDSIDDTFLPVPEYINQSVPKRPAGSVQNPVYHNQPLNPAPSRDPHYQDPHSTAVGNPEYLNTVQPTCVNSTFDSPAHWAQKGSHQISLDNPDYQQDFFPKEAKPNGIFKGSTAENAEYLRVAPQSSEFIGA

Row | SMILES | GI50 (Z-138) [µM] | GI50 (U2932) [µM] | GI50 (cells [1]) [µM] | GI50 (U-937) [µM] | GI50 (cells [2]) [µM] | GI50 [3] [µM] | GI50 (cells [4]) [µM] | pIC50 [5] | GI50 [6] [µM] | GI50 (Rec1) [µM] | GI50 (NCI-H1975) [µM] | GI50 at 72 h [7] [µM] | GI50 (SU-DHL-2) [µM] | GI50 (HeLa) [µM] | GI50 [8] [µM] | GI50 (MOLM-13) [µM] | GI50 (NAMALVA) [µM] | GI50 (OCI-AML2) [µM] | GI50 [9] [µM] | GI50 (DU-145) [µM] | further results
1 | CCC(=O)Nc1cc(-n2c(=O)ccc3cnc4ccc(-n5cccn5)cc4c32)ccc1C | > 10 | > 10 | > 10 | > 10 | > 10 | > 10 | > 10 | < 5.00 | > 10 | > 10 | > 10 | > 10 | > 10 | > 10 | > 10 | > 10 | > 10 | > 10 | > 10 | > 10 | GI50 (Ramos): > 10 µM; GI50 (cells [10]): > 10 µM; GI50 [11]: > 10 µM; GI50 (NCI-H358): > 10 µM; GI50 (JVM-2): > 10 µM; GI50 (LNCaP C4-2): > 10 µM; GI50 (A549): > 10 µM; GI50 (HEL): > 10 µM; GI50 [12]: > 10 µM; GI50 (Pfeiffer): > 10 µM; GI50 [13]: > 10 µM
2 | C=CC(=O)Nc1cc(-n2c(=O)ccc3cnc4ccc(-n5cccn5)cc4c32)ccc1C | 8.5 | 7.9 | 3.7 | > 10 | 2.9 | 2.1 | 10.3 | < 5.00 | 1.59 | 1.6 | 5.57 | > 10 | > 10 | > 10 | 1.4 | 0.59 | 4.5 | 7.8 | 9.67 | > 10 | GI50 (Ramos): 3.5 µM; GI50 (cells [10]): 2.4 µM; GI50 [11]: 0.018 µM; GI50 (NCI-H358): > 10 µM; GI50 (JVM-2): 3.4 µM; GI50 (LNCaP C4-2): > 10 µM; GI50 (A549): 3.7 µM; GI50 (HEL): 1.8 µM; GI50 [12]: 8.8 µM; GI50 (Pfeiffer): 5.8 µM; GI50 [13]: 2.66 µM
